# Laboratory results reported in ChEMBL document CHEMBL5518206, “Hit-to-Lead Identification and Validation of a Triaromatic Pleuromutilin Antibiotic Candidate” (J Med Chem, 2024).
# Key:
# Enterococcus faecalis = assay: Antibacterial activity against Enterococcus faecalis assessed as inhibition of visible growth incubated for 20 to 24 hrs by microbroth serial dilution assay; type: functional; conditions: time 20-24 hrs, read-out: MIC100
# Enterococcus faecium [1] = assay: Antibacterial activity against Linezolid/Ampicillin/ciprofloxacin/Vancomycin-resistant Enterococcus faecium assessed as inhibition of visible growth incubated for 20 to 24 hrs by microbroth serial dilution assay; type: functional; conditions: time 20-24 hrs, read-out: MIC100
# Staphylococcus aureus [2] = assay: Antibacterial activity against multi drug-resistant Staphylococcus aureus USA300 FPR3757 assessed as inhibition of visible growth incubated for 20 to 24 hrs by microbroth serial dilution assay; type: functional; conditions: time 20-24 hrs, read-out: MIC100
# [3] = Inhibition of P-gp efflux in MDCKII-MDR1 cells using calcein-AM as substrate assessed as intracellular calcein fluorescence preincubated for 15 mins followed by substrate addition and measured by fluorescence based assay; type: cell-based; conditions: Canis lupus familiaris
# MDCK-MDR1 = assay: Cytotoxicity against MDCKII-MDR1 cells assessed as cell viability at 100 uM measured by MTT assay; type: toxicity, cell-based, Canis lupus familiaris; conditions: dog, mdck-mdr1, 100 µM
# Enterococcus faecium [4] = assay: Antibacterial activity against Vancomycin-resistant Enterococcus faecium assessed as inhibition of visible growth incubated for 20 to 24 hrs by microbroth serial dilution assay; type: functional; conditions: time 20-24 hrs, read-out: MIC100
# [5] = Solubility of the compound in Dulbecco's PBS at 20 degree C measured after 24 hrs
# Streptococcus pneumoniae = assay: Antibacterial activity against Streptococcus pneumoniae assessed as inhibition of visible growth incubated for 20 to 24 hrs by microbroth serial dilution assay; type: functional; conditions: time 20-24 hrs, read-out: MIC100
# Staphylococcus aureus [6] = assay: (§1) Induction of resistant development in -(6-(6-(Piperazin-1-y1)-9H-purin-9-y)methyl)pyridin-3-y1)-1H-1,2,3-triazol-1-yl)-22-deoxypleuromutilin-16 passages resistance developed Staphylococcus aureus USA300 FPR3757 assessed as fold increase in MIC at sub-MIC concentration measured after 22 passages with conjugate by serial passage assay; type: functional
# Staphylococcus aureus [7] = assay: Induction of resistant development in linezolid 5 passages resistance developed Staphylococcus aureus USA300 FPR3757 assessed as fold increase in MIC at sub-MIC concentration measured after 18 passages with conjugate by serial passage assay; type: functional
# Staphylococcus aureus [8] = assay: Induction of resistant development in linezolid 5 passages resistance developed Staphylococcus aureus USA300 FPR3757 assessed as fold increase in MIC at sub-MIC concentration measured after 28 passages with conjugate by serial passage assay; type: functional
# Staphylococcus aureus [9] = assay: Induction of resistant development in lefamulin 5 passages resistance developed Staphylococcus aureus USA300 FPR3757 assessed as fold increase in MIC at sub-MIC concentration measured after 5 passages with conjugate by serial passage assay; type: functional
# Staphylococcus aureus [10] = assay: Induction of resistant development in lefamulin 5 passages resistance developed Staphylococcus aureus USA300 FPR3757 assessed as fold increase in MIC at sub-MIC concentration measured after 28 passages with conjugate by serial passage assay; type: functional
# Staphylococcus aureus [11] = assay: as §1, with “after 9” for “after 22”; type: functional
# Staphylococcus aureus [12] = assay: as §1, with “after 25” for “after 22”; type: functional
# Staphylococcus aureus [13] = assay: as §1, with “after 13” for “after 22”; type: functional
# Staphylococcus aureus [14] = assay: Induction of resistant development in linezolid 5 passages resistance developed Staphylococcus aureus USA300 FPR3757 assessed as fold increase in MIC at sub-MIC concentration measured after 9 passages with conjugate by serial passage assay; type: functional
# Staphylococcus aureus [15] = assay: Induction of resistant development in lefamulin 5 passages resistance developed Staphylococcus aureus USA300 FPR3757 assessed as fold increase in MIC at sub-MIC concentration measured after 9 passages with conjugate by serial passage assay; type: functional
# Staphylococcus aureus [16] = assay: Induction of resistant development in linezolid 5 passages resistance developed Staphylococcus aureus USA300 FPR3757 assessed as fold increase in MIC at sub-MIC concentration measured after 25 passages with conjugate by serial passage assay; type: functional
# Staphylococcus aureus [17] = assay: Induction of resistant development in lefamulin 5 passages resistance developed Staphylococcus aureus USA300 FPR3757 assessed as fold increase in MIC at sub-MIC concentration measured after 22 passages with conjugate by serial passage assay; type: functional
# Staphylococcus aureus [18] = assay: as §1, with “after 18” for “after 22”; type: functional
# Staphylococcus aureus [19] = assay: Induction of resistant development in lefamulin 5 passages resistance developed Staphylococcus aureus USA300 FPR3757 assessed as fold increase in MIC at sub-MIC concentration measured after 18 passages with conjugate by serial passage assay; type: functional
# Staphylococcus aureus [20] = assay: Induction of resistant development in linezolid 5 passages resistance developed Staphylococcus aureus USA300 FPR3757 assessed as fold increase in MIC at sub-MIC concentration measured after 13 passages with conjugate by serial passage assay; type: functional
# Staphylococcus aureus [21] = assay: as §1, with “after 28” for “after 22”; type: functional
# Staphylococcus aureus [22] = assay: as §1, with “after 5” for “after 22”; type: functional
# Staphylococcus aureus [23] = assay: Induction of resistant development in linezolid 5 passages resistance developed Staphylococcus aureus USA300 FPR3757 assessed as fold increase in MIC at sub-MIC concentration measured after 22 passages with conjugate by serial passage assay; type: functional
# Staphylococcus aureus [24] = assay: Induction of resistant development in lefamulin 5 passages resistance developed Staphylococcus aureus USA300 FPR3757 assessed as fold increase in MIC at sub-MIC concentration measured after 13 passages with conjugate by serial passage assay; type: functional
# Staphylococcus aureus [25] = assay: Induction of resistant development in lefamulin 5 passages resistance developed Staphylococcus aureus USA300 FPR3757 assessed as fold increase in MIC at sub-MIC concentration measured after 25 passages with conjugate by serial passage assay; type: functional
# Staphylococcus aureus [26] = assay: Induction of resistant development in linezolid 5 passages resistance developed Staphylococcus aureus USA300 FPR3757 assessed as fold increase in MIC at sub-MIC concentration measured after 5 passages with conjugate by serial passage assay; type: functional
smiles,measurement,setting,value
C=C[C@]1(C)C[C@@H](OC(=O)Cn2cc(-c3ccc(Cn4cnc5c(N)nc(N)nc54)cc3)nn2)[C@]2(C)[C@H](C)CC[C@]3(CCC(=O)[C@H]32)[C@@H](C)[C@@H]1O,MIC,Enterococcus faecalis,0.25 µg/mL
same,MIC,Enterococcus faecium [1],0.12 µg/mL
same,MIC,Staphylococcus aureus [2],0.06 µg/mL
same,IC50,[3],> 100 µM
same,Activity,MDCK-MDR1,Non-Toxic
same,MIC,Enterococcus faecium [4],0.12 µg/mL
same,solubility at 24 h,[5],1.9 µM
same,MIC,Streptococcus pneumoniae,0.5 µg/mL
C=C[C@]1(C)C[C@@H](OC(=O)Cn2cc(-c3ccc(Cn4cnc5c(N)ncnc54)c(OC)c3)nn2)[C@]2(C)[C@H](C)CC[C@]3(CCC(=O)[C@H]32)[C@@H](C)[C@@H]1O,MIC,Enterococcus faecalis,0.25 µg/mL
same,MIC,Enterococcus faecium [1],0.12 µg/mL
same,MIC,Staphylococcus aureus [2],0.06 µg/mL
same,IC50,[3],46 µM
same,MIC,Enterococcus faecium [4],0.12 µg/mL
same,solubility at 24 h,[5],2.2 µM
same,MIC,Streptococcus pneumoniae,0.25 µg/mL
C=C[C@]1(C)C[C@@H](OC(=O)Cn2cc(-c3ccc(Cn4cnc5c(N6CCNCC6)ncnc54)cc3)nn2)[C@]2(C)[C@H](C)CC[C@]3(CCC(=O)[C@H]32)[C@@H](C)[C@@H]1O,MIC,Enterococcus faecalis,0.25 µg/mL
same,MIC,Enterococcus faecium [1],0.12 µg/mL
same,MIC,Staphylococcus aureus [2],0.25 µg/mL
same,IC50,[3],10 µM
same,MIC,Enterococcus faecium [4],0.06 µg/mL
same,solubility at 24 h,[5],31 µM
same,MIC,Streptococcus pneumoniae,0.25 µg/mL
C=C[C@]1(C)C[C@@H](OC(=O)Cn2cc(-c3ccc([C@@H](C)n4cnc5c(N)ncnc54)cc3)nn2)[C@]2(C)[C@H](C)CC[C@]3(CCC(=O)[C@H]32)[C@@H](C)[C@@H]1O,MIC,Enterococcus faecalis,0.5 µg/mL
same,MIC,Enterococcus faecium [1],0.25 µg/mL
same,MIC,Staphylococcus aureus [2],0.12 µg/mL
same,IC50,[3],50 µM
same,MIC,Enterococcus faecium [4],0.25 µg/mL
same,solubility at 24 h,[5],2.6 µM
same,MIC,Streptococcus pneumoniae,0.25 µg/mL
CC(=O)NC[C@H]1CN(c2ccc(N3CCOCC3)c(F)c2)C(=O)O1,fold change (FC),Staphylococcus aureus [6],8
same,fold change (FC),Staphylococcus aureus [7],16
same,fold change (FC),Staphylococcus aureus [8],32
same,fold change (FC),Staphylococcus aureus [9],8
same,fold change (FC),Staphylococcus aureus [10],2
same,fold change (FC),Staphylococcus aureus [11],4
same,fold change (FC),Staphylococcus aureus [12],8
same,fold change (FC),Staphylococcus aureus [13],4
same,fold change (FC),Staphylococcus aureus [14],4
same,fold change (FC),Staphylococcus aureus [15],2
same,fold change (FC),Staphylococcus aureus [16],32
same,fold change (FC),Staphylococcus aureus [17],2
same,fold change (FC),Staphylococcus aureus [18],4
same,fold change (FC),Staphylococcus aureus [19],2
same,fold change (FC),Staphylococcus aureus [20],8
same,fold change (FC),Staphylococcus aureus [21],16
same,fold change (FC),Staphylococcus aureus [22],8
same,fold change (FC),Staphylococcus aureus [23],32
same,fold change (FC),Staphylococcus aureus [24],4
same,fold change (FC),Staphylococcus aureus [25],2
same,fold change (FC),Staphylococcus aureus [26],4
C=C[C@]1(C)C[C@@H](OC(=O)Cn2cc(-c3ccc([C@H](C)n4cnc5c(N)ncnc54)cc3)nn2)[C@]2(C)[C@H](C)CC[C@]3(CCC(=O)[C@H]32)[C@@H](C)[C@@H]1O,MIC,Enterococcus faecalis,1 µg/mL
same,MIC,Enterococcus faecium [1],0.5 µg/mL
same,MIC,Staphylococcus aureus [2],0.12 µg/mL
same,IC50,[3],81 µM
same,MIC,Enterococcus faecium [4],0.5 µg/mL
same,MIC,Streptococcus pneumoniae,1 µg/mL
